From PubChem BioAssay (NCI)
Several values for one entry are separate records, joined by “and”; a condition that tells them apart may be missing. Identical values can stand only once.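 A five-concentration, 48-hour dose response in 96-well plates underlies each endpoint, interpolated linearly between surrounding concentrations. Here, GI50 denotes the concentration required for 50% inhibition of growth. TGI marks complete inhibition of growth.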

Experiments:
Test in all cases: DTP human tumour cell line panel, 48 h
BT-549 breast = test system: BT-549 breast
DU-145 prostate = test system: DU-145 prostate
MALME-3M melanoma = test system: MALME-3M melanoma
NCI/ADR-RES ovarian = test system: NCI/ADR-RES ovarian
OVCAR-3 ovarian = test system: OVCAR-3 ovarian
SF-268 CNS = test system: SF-268 CNS
SK-MEL-5 melanoma = test system: SK-MEL-5 melanoma
CAKI-1 renal = test system: CAKI-1 renal

Compound | GI50 (BT-549 breast) | TGI (BT-549 breast) | GI50 (DU-145 prostate) | TGI (DU-145 prostate) | GI50 (MALME-3M melanoma) | TGI (MALME-3M melanoma) | GI50 (NCI/ADR-RES ovarian) | TGI (NCI/ADR-RES ovarian) | GI50 (OVCAR-3 ovarian) | TGI (OVCAR-3 ovarian) | GI50 (SF-268 CNS) | TGI (SF-268 CNS) | GI50 (SK-MEL-5 melanoma) | TGI (SK-MEL-5 melanoma) | GI50 (CAKI-1 renal) | TGI (CAKI-1 renal)
c1ccc2nc(Cn3c[n+](Cc4ccc5ccccc5n4)c4ccccc43)ccc2c1 | 1.95 µM | 6.5 µM | 4.55 µM | 17 µM | 1.26 µM | 4.7 µM | > 100 µM | > 100 µM | 1.6 µM | 4.99 µM | 2.97 µM | 14.2 µM | 1.45 µM | 2.8 µM |  | 
CN(C)c1ccc2nc3ccc(=[N+](C)C)cc-3oc2c1 | 11.2 µM | 74.2 µM | 5.71 µM | 49.4 µM | 1.67 µM | 4.13 µM | 12.1 µM | 97.9 µM | 0.4 µM | 5.09 µM | 1.59 µM | 4.64 µM | 0.47 µM | 1.65 µM | 5.92 µM | 57.6 µM
CC1=CC(=O)c2c(O)cccc2C1=O |  | 3.15 µM |  | 3.02 µM |  | 2.19 µM |  | 3.16 µM |  | 2.29 µM |  | 3.96 µM |  | 3.05 µM |  | 3.24 µM
N=C(N)c1nn(C2OC(CO)C(O)C2O)c2nc[nH]c(=O)c12 (stereo not given) | 0.33 µM | 2.67 µM | 0.196 µM | 0.78 µM | 0.206 µM | 0.612 µM | 0.321 µM | 1.72 µM | 0.836 µM | 2.9 µM | 0.445 µM | 3.04 µM | 0.444 µM | 1.53 µM | 0.264 µM | 1.2 µM
O=C(Nc1cccc(Cl)c1)Nc1ncc(CCNc2ncnc3ccsc23)s1 | 2.07 µM and 1.68 µM | 11.8 µM and 7.75 µM | 4.59 µM and 2.74 µM | 20.5 µM and > 10 µM | 3.23 µM and 4.07 µM | 26 µM and > 10 µM | 1.34 µM and 1.6 µM | 11.8 µM and > 10 µM | 4.06 µM and 1.06 µM | 17.1 µM and > 10 µM | 5.85 µM and 2.75 µM | 29.6 µM and > 10 µM | 1.39 µM and 1.59 µM | 2.83 µM and 4.16 µM | 1.12 µM and 1.34 µM | 22.8 µM and > 10 µM
O=C(CCl)c1ccc([N+](=O)[O-])o1 | 2.24 µM | 6.85 µM | 2.21 µM | 5.01 µM | 1.98 µM | 4.37 µM | 3.51 µM | 23.8 µM | 1.25 µM | 2.58 µM | 2.54 µM | 6.8 µM | 4.11 µM | 15.7 µM | 1.73 µM | 3.24 µM
CCc1c(C)[nH]c(/C=C2\N=C(c3ccc[nH]3)C=C2OC)c1C | 0.129 µM | 3.87 µM | 0.219 µM | 11 µM | 0.474 µM | 2.05 µM | 0.17 µM | 6.42 µM | 0.143 µM | 3.18 µM | 0.224 µM | 11.3 µM | 0.159 µM | 0.545 µM | 0.292 µM | 3.53 µM
O=C(O)CSSCC(=O)O |  | > 100 µM |  | > 100 µM |  | > 100 µM |  | > 100 µM |  | > 100 µM |  | > 100 µM |  | > 100 µM |  | > 100 µM
